US20250339396A1 (COSMAS THERAPEUTICS DEVELOPMENT INC., priority 2021, published 2025)

Test system: neuropathic (SNI) rats
Assay: Sleep restoration in neuropathic rats, 24 h EEG/EMG recordings (REM, NREM, wakefulness, sleep fragmentation index)
Format: in vivo, rat
Settings: for NREM 24 h, mean difference (Bonferroni's multiple comparison test) / REM 24 h, mean difference (Bonferroni's multiple comparison test) / Wake 24 h, mean difference (Bonferroni's multiple comparison test) / SFI (sleep fragmentation index), mean difference (Bonferroni's multiple comparison test): Prodrug D 150 mg/kg, neuropathic (SNI) rats; for NREM 24 h, mean difference (Bonferroni's multiple comparison test) / REM 24 h, mean difference (Bonferroni's multiple comparison test) / Wake 24 h, mean difference (Bonferroni's multiple comparison test): 24 h EEG/EMG; for SFI (sleep fragmentation index), mean difference (Bonferroni's multiple comparison test): awakenings in 24 h divided by total sleep time in hours
Method: Wistar rats weighted 120 g at the beginning of the experiment were housed under standard conditions, at a constant temperature of 22° C., with food and water provided ad libitum and under a 12 h light/dark cycle (lights on at 7:00 AM; lights off at 7:00 PM). All experimental procedures and surgeries were approved by the Animal Ethics Committee of local institutional committee for animal use and care (McGill University, Canada), following the Canadian Institute of Health Research for animal care and scientific use.
Only animals presenting allodynia (mean 2.5 gr) 14 days after SNI surgery, were then implanted EEG/EMG electrode, for 24 hours electrical recording and non-allodynic rat were excluded.
Sham and neuropathic rats were deeply anesthetized with isoflurane (5% for induction, 2-3% for maintenance) and placed in a stereotaxic frame. For EEG monitoring, three stainless-steel epidural electrodes were positioned through 1.5 mm burr holes at-2 mm anteroposterior (AP) and −3 mm lateral (L), −4.5 mm AP and +3 mm L, −7 mm AP and […] according to bregma (Paxinos and Watson 2006). For the EMG signal, three flexible stainless-steel wires were implanted into the neck muscle. Then, wires and connectors were fixed to the skull using dental acrylic (Coltene/Whaledent Inc. USA). Rats were given 5 days to recovery (Ochoa-Sanchez, et al., 2011).
24-h after electrode implantation surgery, rats were placed for habituation in the recording room from 12:00 PM to 9:00 PM on a daily basis. During this time, the rats were placed in the recording chambers and connected to a flexible 6-flat cable (3M Scotchflex®), in a freely moving manner. No recordings were performed, but tolerance to the cable, and sleep behavior were observed. The day 5 of habituation, recordings were performed for 24 h, starting at 6:00 PM.
Prodrug D (150 mg/kg) was dissolved in 40% PEG 400 and 60% water (about 2.5 mL average for rats by gavage) and was administered at 6 am and 6 pm.
The amplification of EEG/EMG signals were at the total gain of 10.000. EEG/EMG signals were digitalized by a CED 1401 interface system, processed on-line, and analyzed off-line by Spike 2 software, in parallel with analog-to-digital samplings of amplified (Grass, P55) polygraphic signals (EEG; sampling rate, 100 or 200 Hz). Consecutive 10-s epochs were subjected to a Fast Fourier Transform (FFT) and EEG power spectra density was computed in the frequency range of 0-64 Hz (Ochoa-Sanchez, R et al., 2011).
Analysis was made offline using the spike 2 software (Cambridge). Three classical sleep stages are identified using EEG and EMG recordings. Wakefulness was determined by a sustained activity of EMG and low amplitude and high frequency of EEG. NREM (non-rapid eyes movement) sleep was characterized by high amplitude […] (1-4 Hz) and low muscle activity. REM (rapid eyes movement) sleep was marked with muscle atonia as observed in EMG and low amplitude […] in EEG (6-11). Only period longer than 10 seconds was marked for further analysis of awake, REM and NREM sleep, in order to eliminate the transitional period such as drowsiness (Ochoa-Sanchez, R et al., 2011).
Given the changes induced by the neuropathy on sleep parameters, we then calculate the sleep fragmentation index (SFI). SFI was calculated as the total number of awakenings in 24 h divided by the total sleep time in hours.
Data analysis was done using GraphPad Prism statistical software version 5.04 […]. One-way ANOVA was performed for 24 h time of REM, NREM and wakefulness as well as sleep fragmentation index. Post-hoc analyses were performed using the Bonferroni t-test comparisons. All data are expressed as mean±SEM. P<0.05 was considered significant.

[1] = SNI rats, 150 mg/kg by gavage at 6 am and 6 pm

CC(=O)N(CCN(c1ccc(F)cc1)c1cccc(Br)c1)C(=O)OCOC(=O)CN.Cl [Prodrug D, ((acetyl(2-((3-bromophenyl)(4-fluorophenyl)amino)ethyl)carbamoyl)oxy)methyl 2-aminoacetate hydrochloride]
NREM 24 h, mean difference (Bonferroni's multiple comparison test) (Control vs SNI + Prodrug D): −236.5
REM 24 h, mean difference (Bonferroni's multiple comparison test) (Control vs SNI + Prodrug D): −107
Wake 24 h, mean difference (Bonferroni's multiple comparison test) (Control vs SNI + Prodrug D): 343.4
SFI (sleep fragmentation index), mean difference (Bonferroni's multiple comparison test) (Control vs SNI + Prodrug D): 0.2758
REM time, NREM time and time in wakefulness during 24 h [1]: restore all the three parameters
sleep fragmentation index (SFI) [1]: reverse the fragmentation
NREM 24 h, mean difference (Bonferroni's multiple comparison test) (Sham vs SNI + Prodrug D): −62.39
REM 24 h, mean difference (Bonferroni's multiple comparison test) (Sham vs SNI + Prodrug D): −44.39
Wake 24 h, mean difference (Bonferroni's multiple comparison test) (Sham vs SNI + Prodrug D): 106.8
SFI (sleep fragmentation index), mean difference (Bonferroni's multiple comparison test) (Sham vs SNI + Prodrug D): 0.01886
